Test results published in PubChem BioAssay AID1963436 (Molecular Pharmacology Branch, DTP, NCI, 2024).
pIC50: −log10 of the molar value.

Tested on: OVCAR-5 complex spheroid (HUVEC/MSC), viability % T/C
Test: Anticancer human tumor OVCAR-5 cell line growth inhibition [Asc];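 further: spheroids exposed to agents for 7 days before readout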;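 on viability, T/C: 100% = DMSO vehicle-treated wells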
Details: for pIC50: curve of first compound; for viability, T/C: stronger effect = lower value
In short: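 Tumor cells were grown as complex spheroids with human endothelial cells (HUVEC) and human mesenchymal stem cells as stroma. Agents were tested alone and in combination, in half-log steps down from the clinical Cmax, or from 10 microM where Cmax was unknown.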

[1] = second compound 0.01 µM, first compound 0.0316 µM
[2] = second compound 0.01 µM, first compound 0.1 µM
[3] = second compound 0.0316 µM, first compound 0.0316 µM
[4] = second compound 0.0316 µM, first compound 0.1 µM
[5] = second compound 0.1 µM, first compound 0.00316 µM
[6] = second compound 0.1 µM, first compound 0.01 µM
[7] = second compound 0.1 µM, first compound 0.0316 µM
[8] = second compound 0.1 µM, first compound 0.1 µM
[9] = second compound 0.316 µM, first compound 0.00316 µM
[10] = second compound 0.316 µM, first compound 0.01 µM
[11] = second compound 0.316 µM, first compound 0.0316 µM
[12] = second compound 0.316 µM, first compound 0.1 µM
[13] = second compound 1 µM, first compound 0.00316 µM
[14] = second compound 1 µM, first compound 0.01 µM
[15] = second compound 1 µM, first compound 0.0316 µM
[16] = second compound 1 µM, first compound 0.1 µM
[17] = second compound 0.1 µM, first compound 0.316 µM
[18] = second compound 0.1 µM, first compound 1 µM
[19] = second compound 0.1 µM, first compound 3.16 µM
[20] = second compound 0.1 µM, first compound 10 µM
[21] = second compound 0.316 µM, first compound 0.316 µM
[22] = second compound 0.316 µM, first compound 1 µM
[23] = second compound 0.316 µM, first compound 3.16 µM
[24] = second compound 0.316 µM, first compound 10 µM
[25] = second compound 1 µM, first compound 0.316 µM
[26] = second compound 1 µM, first compound 1 µM
[27] = second compound 1 µM, first compound 3.16 µM
[28] = second compound 1 µM, first compound 10 µM
[29] = second compound 3.16 µM, first compound 0.00316 µM
[30] = second compound 3.16 µM, first compound 0.01 µM
[31] = second compound 3.16 µM, first compound 0.0316 µM
[32] = second compound 3.16 µM, first compound 0.1 µM
[33] = second compound 3.16 µM, first compound 0.316 µM
[34] = second compound 3.16 µM, first compound 1 µM
[35] = second compound 10 µM, first compound 0.00316 µM
[36] = second compound 10 µM, first compound 0.01 µM
[37] = second compound 10 µM, first compound 0.0316 µM
[38] = second compound 10 µM, first compound 0.1 µM
[39] = second compound 10 µM, first compound 0.316 µM
[40] = second compound 10 µM, first compound 1 µM

Cn1ncnc1[C@H]1c2n[nH]c(=O)c3cc(F)cc(c23)N[C@@H]1c1ccc(F)cc1 + CNC(C)C(=O)NC1CN(S(=O)(=O)c2cccc(S(=O)(=O)N3CCC4CCC(C(=O)NC(c5ccccc5)c5ccccc5)N4C(=O)C(NC(=O)C(C)NC)C3)c2)CCC2CCC(C(=O)NC(c3ccccc3)c3ccccc3)N2C1=O
pIC50 (second compound 0.01 µM): < 7.00 | pIC50 (second compound 0.0316 µM): < 7.00 | pIC50 (second compound 0.1 µM): < 7.00 | pIC50 (second compound 0.316 µM): < 7.00 | pIC50 (second compound 1 µM): < 7.00 | viability, T/C (second compound 0.01 µM, first compound 0.000316 µM): 92.5% | viability, T/C (second compound 0.01 µM, first compound 0.001 µM): 86.9% | viability, T/C (second compound 0.01 µM, first compound 0.00316 µM): 85.9% | viability, T/C (second compound 0.01 µM, first compound 0.01 µM): 84.3% | viability, T/C [1]: 92.3% | viability, T/C [2]: 86.5% | viability, T/C (second compound 0.0316 µM, first compound 0.000316 µM): 81.8% | viability, T/C (second compound 0.0316 µM, first compound 0.001 µM): 77.6% | viability, T/C (second compound 0.0316 µM, first compound 0.00316 µM): 84.5% | viability, T/C (second compound 0.0316 µM, first compound 0.01 µM): 73.2% | viability, T/C [3]: 73.9% | viability, T/C [4]: 74.6% | viability, T/C (second compound 0.1 µM, first compound 0.000316 µM): 78.3% | viability, T/C (second compound 0.1 µM, first compound 0.001 µM): 88.3% | viability, T/C [5]: 81.6% | viability, T/C [6]: 71.7% | viability, T/C [7]: 73.4% | viability, T/C [8]: 68.5% | viability, T/C (second compound 0.316 µM, first compound 0.000316 µM): 81.5% | viability, T/C (second compound 0.316 µM, first compound 0.001 µM): 85.8% | viability, T/C [9]: 85.1% | viability, T/C [10]: 71.5% | viability, T/C [11]: 80.7% | viability, T/C [12]: 74.8% | viability, T/C (second compound 1 µM, first compound 0.000316 µM): 88.3% | viability, T/C (second compound 1 µM, first compound 0.001 µM): 94.4% | viability, T/C [13]: 78.6% | viability, T/C [14]: 72.7% | viability, T/C [15]: 76.1% | viability, T/C [16]: 69.1%

C#Cc1c(F)ccc2cc(O)cc(-c3ncc4c(N5CC6CCC(C5)N6)nc(OCC56CCCN5CC(F)C6)nc4c3F)c12 (stereo not given) + CNC(C)C(=O)NC1CN(S(=O)(=O)c2cccc(S(=O)(=O)N3CCC4CCC(C(=O)NC(c5ccccc5)c5ccccc5)N4C(=O)C(NC(=O)C(C)NC)C3)c2)CCC2CCC(C(=O)NC(c3ccccc3)c3ccccc3)N2C1=O
pIC50 (second compound 0.01 µM): 5.16 | pIC50 (second compound 0.0316 µM): 5.21 | pIC50 (second compound 0.1 µM): 5.29 | pIC50 (second compound 0.316 µM): 5.30 | pIC50 (second compound 1 µM): 5.29 | viability, T/C [1]: 97% | viability, T/C [2]: 99.1% | viability, T/C (second compound 0.01 µM, first compound 0.316 µM): 95.8% | viability, T/C (second compound 0.01 µM, first compound 1 µM): 84.2% | viability, T/C (second compound 0.01 µM, first compound 3.16 µM): 70.8% | viability, T/C (second compound 0.01 µM, first compound 10 µM): 40.2% | viability, T/C [3]: 90.2% | viability, T/C [4]: 88.1% | viability, T/C (second compound 0.0316 µM, first compound 0.316 µM): 91.8% | viability, T/C (second compound 0.0316 µM, first compound 1 µM): 68.5% | viability, T/C (second compound 0.0316 µM, first compound 3.16 µM): 66.5% | viability, T/C (second compound 0.0316 µM, first compound 10 µM): 40.3% | viability, T/C [7]: 84.9% | viability, T/C [8]: 89.5% | viability, T/C [17]: 76.2% | viability, T/C [18]: 64.8% | viability, T/C [19]: 63.6% | viability, T/C [20]: 37% | viability, T/C [11]: 84.5% | viability, T/C [12]: 84.2% | viability, T/C [21]: 75.3% | viability, T/C [22]: 65.9% | viability, T/C [23]: 61.2% | viability, T/C [24]: 37.8% | viability, T/C [15]: 93.3% | viability, T/C [16]: 95.2% | viability, T/C [25]: 76.1% | viability, T/C [26]: 71% | viability, T/C [27]: 65% | viability, T/C [28]: 35.2%

O=C(c1ccc(F)c(F)c1Nc1ccc(I)cc1F)N1CC(O)([C@@H]2CCCCN2)C1 + Cc1c(S(C)(=O)=O)c(-c2cc(F)cc(N3CCN(c4ccc(NS(=O)(=O)c5ccc(NC(CCN6CCC(C(=O)OCCCP(=O)(O)O)CC6)CSc6ccccc6)c(S(=O)(=O)C(F)(F)F)c5)cc4)CC3)c2)c(-c2ccc(Cl)cc2)n1C(C)C
pIC50 (second compound 0.1 µM): 6.82 | pIC50 (second compound 0.316 µM): 7.08 | pIC50 (second compound 1 µM): 7.11 | pIC50 (second compound 3.16 µM): 7.23 | pIC50 (second compound 10 µM): 7.12 | viability, T/C [5]: 104% | viability, T/C [6]: 102% | viability, T/C [7]: 71.8% | viability, T/C [8]: 54.8% | viability, T/C [17]: 41.9% | viability, T/C [18]: 17.6% | viability, T/C [9]: 93.7% | viability, T/C [10]: 97.3% | viability, T/C [11]: 66.7% | viability, T/C [12]: 42.1% | viability, T/C [21]: 32.2% | viability, T/C [22]: 9.34% | viability, T/C [13]: 90.7% | viability, T/C [14]: 95% | viability, T/C [15]: 74.5% | viability, T/C [16]: 38.3% | viability, T/C [25]: 26.9% | viability, T/C [26]: 4.46% | viability, T/C [29]: 81.2% | viability, T/C [30]: 90.4% | viability, T/C [31]: 68.1% | viability, T/C [32]: 31.6% | viability, T/C [33]: 18.6% | viability, T/C [34]: 1.8% | viability, T/C [35]: 115% | viability, T/C [36]: 112% | viability, T/C [37]: 78.8% | viability, T/C [38]: 41.1% | viability, T/C [39]: 12.6% | viability, T/C [40]: 2.47%

CNC(C)C(=O)NC1CN(S(=O)(=O)c2cccc(S(=O)(=O)N3CCC4CCC(C(=O)NC(c5ccccc5)c5ccccc5)N4C(=O)C(NC(=O)C(C)NC)C3)c2)CCC2CCC(C(=O)NC(c3ccccc3)c3ccccc3)N2C1=O (stereo not given) + Cc1c(S(C)(=O)=O)c(-c2cc(F)cc(N3CCN(c4ccc(NS(=O)(=O)c5ccc(NC(CCN6CCC(C(=O)OCCCP(=O)(O)O)CC6)CSc6ccccc6)c(S(=O)(=O)C(F)(F)F)c5)cc4)CC3)c2)c(-c2ccc(Cl)cc2)n1C(C)C
pIC50 (second compound 0.1 µM): < 6.00 | pIC50 (second compound 0.316 µM): < 6.00 | pIC50 (second compound 1 µM): < 6.00 | pIC50 (second compound 3.16 µM): < 6.00 | pIC50 (second compound 10 µM): < 6.00 | viability, T/C [5]: 97.7% | viability, T/C [6]: 91.1% | viability, T/C [7]: 83.2% | viability, T/C [8]: 79.3% | viability, T/C [17]: 85.2% | viability, T/C [18]: 76.1% | viability, T/C [9]: 96.2% | viability, T/C [10]: 87.7% | viability, T/C [11]: 78% | viability, T/C [12]: 77.8% | viability, T/C [21]: 74.8% | viability, T/C [22]: 81% | viability, T/C [13]: 90.7% | viability, T/C [14]: 86.9% | viability, T/C [15]: 78.8% | viability, T/C [16]: 75.2% | viability, T/C [25]: 67.1% | viability, T/C [26]: 75% | viability, T/C [29]: 89.1% | viability, T/C [30]: 94.3% | viability, T/C [31]: 83% | viability, T/C [32]: 68.1% | viability, T/C [33]: 71.5% | viability, T/C [34]: 81.6% | viability, T/C [35]: 119% | viability, T/C [36]: 130% | viability, T/C [37]: 121% | viability, T/C [38]: 99.8% | viability, T/C [39]: 108% | viability, T/C [40]: 96.8%

C=CC(=O)N1CCN(c2nc(=O)n(-c3c(C)ccnc3C(C)C)c3nc(-c4c(O)cccc4F)c(F)cc23)C(C)C1 (stereo not given) + Cc1c(S(C)(=O)=O)c(-c2cc(F)cc(N3CCN(c4ccc(NS(=O)(=O)c5ccc(NC(CCN6CCC(C(=O)OCCCP(=O)(O)O)CC6)CSc6ccccc6)c(S(=O)(=O)C(F)(F)F)c5)cc4)CC3)c2)c(-c2ccc(Cl)cc2)n1C(C)C
pIC50 (second compound 0.1 µM): < 5.00 | pIC50 (second compound 0.316 µM): < 5.00 | pIC50 (second compound 1 µM): < 5.00 | pIC50 (second compound 3.16 µM): < 5.00 | pIC50 (second compound 10 µM): < 5.00 | viability, T/C [7]: 100% | viability, T/C [8]: 109% | viability, T/C [17]: 98.7% | viability, T/C [18]: 111% | viability, T/C [19]: 114% | viability, T/C [20]: 97.5% | viability, T/C [11]: 93.4% | viability, T/C [12]: 103% | viability, T/C [21]: 95.5% | viability, T/C [22]: 96.9% | viability, T/C [23]: 112% | viability, T/C [24]: 102% | viability, T/C [15]: 89.8% | viability, T/C [16]: 101% | viability, T/C [25]: 111% | viability, T/C [26]: 98.2% | viability, T/C [27]: 97.5% | viability, T/C [28]: 106% | viability, T/C [31]: 95.4% | viability, T/C [32]: 102% | viability, T/C [33]: 109% | viability, T/C [34]: 103% | viability, T/C (second compound 3.16 µM, first compound 3.16 µM): 108% | viability, T/C (second compound 3.16 µM, first compound 10 µM): 98.1% | viability, T/C [37]: 119% | viability, T/C [38]: 136% | viability, T/C [39]: 142% | viability, T/C [40]: 139% | viability, T/C (second compound 10 µM, first compound 3.16 µM): 144% | viability, T/C (second compound 10 µM, first compound 10 µM): 145%
